In experiment [1] the test system is primary cortical neurons injured by glutamate. Nature of the experiment: glutamate toxicity on primary cortical neurons (neuron survival, neurite network). Type of experiment: cell-based, rat. The following applies: for effect on glutamate toxicity: at the lowest concentrations; for non-active concentration: see example 2. As to the method: Rat cortical neurons were cultured as described by Singer et al., 1999 [J. Neuroscience 19(7), 2455-2463] and Callizot et al. 2013 [J. Neurosc. Res. 91(5), 706-716].
Briefly, pregnant females (Wistar; JanvierLabs, St Berthevin, France) at 15 days of gestation were killed by cervical dislocation. Foetuses were collected and immediately placed in ice-cold L15 Leibovitz medium (Pan Biotech, Aidenbach, Germany, Batch: 4120413) with a 2% penicillin (10,000 U/ml) and streptomycin (10 mg/ml) solution (PS; Pan Biotech, Aidenbach, Germany) and 1% bovine serum albumin (BSA; Pan Biotech, Aidenbach, Germany). Cortex was treated for 20 min at 37° C. with a trypsin-EDTA (Pan Biotech, Aidenbach, Germany) solution at a final concentration of 0.05% trypsin and 0.02% EDTA. The dissociation was stopped by addition of Dulbecco's modified Eagle's medium (DMEM) with 4.5 g/liter of glucose (Pan Biotech, Aidenbach, Germany), containing DNAse I grade II (final concentration 0.5 mg/ml; Pan Biotech, Germany) and 10% fetal calf serum (FCS; Invitrogen, Cergy Pointoise, France). Cells were mechanically dissociated by three forced passages through the tip of a 10-ml pipette. Cells were then centrifuged at 515 g for 10 min at 4° C. The supernatant was discarded, and the pellet was resuspended in a defined culture medium consisting of Neurobasal medium (Invitrogen, Cergy Pointoise, France) with a 2% solution of B27 supplement (Invitrogen, Cergy Pointoise, France), 2 mmol/liter of L-glutamine (Pan Biotech, Aidenbach, Germany), 2% of PS solution, and 10 ng/ml of brain-derived neurotrophic factor (BDNF; Pan Biotech, Aidenbach, Germany). Viable cells were counted in a Neubauer cytometer, using the trypan blue exclusion test. The cells were seeded at a density of 30,000 per well in 96-well plates precoated with poly-L-lysine (Corning Biocoat, Tewksbury, USA) and were cultured at 37° C. in an air (95%)-CO2 (5%) incubator. The medium was changed every 2 days.
On day 13, the cultures were exposed for 20 minutes to glutamate 40 μM in the absence or presence of Huperzia serrata extracts. Then the cells were washed out and new fresh medium containing or not Huperzia serrata extracts was added for another 48 hours.
The cells were then fixed by a cold solution ethanol/acetic acid (95:5 v/v) for 5 minutes at −20° C. After permeabilization with 0.1% of saponin (Sigma), cells were incubated for 2 hours with mouse monoclonal antibody against microtubule-associated-protein 2 (MAP 2; Sigma) at dilution of 1/400 in PBS containing 1% foetal calf serum (Invitrogen) and 0.1% of saponin.
Neuron survival assessment: For each condition 6 wells were assessed, 20 pictures per well were taken using InCell Analyzer™ 1000 (GE Healthcare) with 20× magnification to assess cell bodies (MAP 2 staining). Analysis of picture was done using Developer software (GE Healthcare), the number of neurons per picture was recorded. A mean of neuron number of the 20 pictures was automatically calculated per well, then one data was provided per well (total of 6 raw data were provided per condition).
Neurite network length assessment: For each condition 6 wells were assessed, 20 pictures per well were taken using InCell Analyzer™ 1000 with 20× magnification (20 pictures at X20 representing ˜80% of the total well surface), to assess MAP-2 staining. Analysis of picture was done using Developer software, the total neurite length per picture was recorded. A mean neurite length of the 20 pictures was automatically calculated per well, then one data was provided per well (total of 6 raw data were provided per condition).
The protocol used in these assays is the same as described in example 1. After 13 days of neuron culture, the candidate compounds were solved in DMSO and diluted in culture medium. […]

For experiment [2], the system named is primary cortical neurons injured by Aβ. Kind of experiment: Aβ-peptide toxicity on primary cortical neurons (neuron survival, neurite network). The settings on record: Aβ 20 μM, 24 h. The format is cell-based, rat. As to the method:
The present study used an in vitro model of Alzheimer's disease established by Callizot et al. [2013, already cited], using Aβ-peptide solution containing Aβ-oligomers and permitting to reproduce essential neuropathological features of Alzheimer's disease.
The Aβ1-42-preparation was obtained following the procedure described by Callizot et al. [2013, already cited]. Briefly, Aβ1-42 peptide was dissolved in the defined culture medium mentioned above, devoid of serum, at an initial concentration of 40 μmol/liter. This solution was gently agitated for 3 days at 37° C. in the dark and immediately used after being diluted in culture medium to the concentrations used.
On day 11 of culture, HA, CA, FA and mixtures thereof were solved and diluted in culture medium and then pre-incubated with cortical neurons 1 hour before the Aβ1-42-peptide application. Aβ1-42-preparation was then added to a final concentration of 20 μM diluted in control medium.
After 24 hours of Aβ-intoxication, the cultures were fixed and immunolabeled and the neuron survival and the neurite network length were assessed as described in the above example.

Each structure is given as a SMILES string. Bounds are passed on as bounds.

As to `C/C=C1\[C@H]2C=C(C)C[C@]1(N)c1ccc(=O)[nH]c1C2` [HA, huperzine A, reference compound], in experiment [1], the “effect on glutamate toxicity” value is on record as “little or no effect”. In addition, in experiment [1] (glutamate 40 μM, 20 min), the lowest active dose turned out to be 1 nM and the non-active concentration stood at 10 pM. In experiment [1] (glutamate 40 μM, 20 min, 10 nM), this compound yielded a neurite network of over 90% and a neuron survival of 94%. For the same compound, the neuron survival result in experiment [2] (HA, all concentrations) is recorded as “not able to significantly protect”.

`COc1cc(/C=C/C(=O)O)ccc1O` [FA, ferulic acid]: the “effect on glutamate toxicity” value in experiment [1] is listed as “little or no effect”. Besides, the neurite network entry is recorded as “significant protective effect” in experiment [1] (glutamate 40 μM, 20 min, 10 μM and 100 μM); “significant effect” in experiment [2] (10 and 100 μM). The same compound came in with a non-active concentration in experiment [1] (glutamate 40 μM, 20 min) of 10000 pM. Moreover, the neuron survival result in experiment [2] (whatever the concentration tested) is recorded as “not able to protect”.

As for `O=C(O)/C=C/c1ccc(O)c(O)c1` [CA, caffeic acid], the “effect on glutamate toxicity” value in experiment [1] is reported as “little or no effect”. Besides, the neurite network entry was “moderate effect” in experiment [1] (glutamate 40 μM, 20 min, 1 μM and 5 μM); “Protective effect” in experiment [2] (even at lower concentrations). In experiment [1] (glutamate 40 μM, 20 min), this compound gave a non-active concentration of 500 pM. The neuron survival entry in experiment [2] (500 pM and below) was “no effect”; in experiment [2] (from 5 nM up to 5 μM), “significantly protect”.

The values above are taken from patent US10596166B2, “Combination composition comprising huperzine” (priority 2015, dated 2020).
